This note sets out measurements from ChEMBL document CHEMBL1201862, “PubChem BioAssay data set” (2004).

SMILES strings stand for the structures.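 1) Cells in 96-well plates. 2) Compound, 48 h, 5 concentrations. 3) Linear interpolation between surrounding doses. 4) Unreached endpoint = highest concentration. The concentration for 50% growth inhibition is given as GI50.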 Activity calls are given as the source filed them. Cut-off read from the data, not from the text of the source: active = GI50 up to about 1.1 µM and inactive = higher.

Among the test systems are ACHN; BT-549; CCRF-CEM; SF-295; OVCAR-3; T47D; TK-10; NCI-H226; SF-268; HCC 2998; A549; SR; NCI-H23; DU-145; SK-OV-3; NCI-H460; HT-29; KM12; SW-620; NCI-H522.
Assay in all cases: inhibition of tumour cell growth, NCI panel, 48 h

For the compound `O=C1C(Cl)=C(N2CCN(c3ccccn3)CC2)C(=O)c2c(O)ccc(O)c21`, the GI50 with ACHN is 2.42 µM (inactive); in the assay on BT-549 it was 1.9 µM (inactive); with CCRF-CEM, 0.37 µM (active); in the assay on SF-295 it was 3.78 µM (inactive); in the assay with OVCAR-3, 1.95 µM (inactive); with T47D, 1.3 µM (inactive). For the same compound, the GI50 with TK-10 is 2.29 µM (inactive); in the assay on NCI-H226, 4.69 µM (inactive); in the assay with SF-268 it was 2.59 µM (inactive); in the assay with HCC 2998, 2.51 µM (inactive); in the assay on A549, 6.49 µM (inactive); with SR it was 0.881 µM (active). Besides, the GI50 with NCI-H23 is 1.18 µM (inactive); with DU-145, 3.66 µM (inactive); with SK-OV-3, 8.32 µM (inactive); with NCI-H460, 3.07 µM (inactive); in the assay with HT-29, 1.28 µM (inactive); with KM12, 3.1 µM (inactive). Further, the GI50 with SW-620 is 0.665 µM (active); in the assay with NCI-H522 it was 1.74 µM (inactive).

Regarding `Cc1cc(S(=O)(=O)Nc2nc(N)n(-c3cnc4ccccc4n3)n2)c(S)cc1Cl`, the GI50 with ACHN was > 100 µM (inactive); with BT-549, 16.6 µM (inactive); with CCRF-CEM, 37.1 µM (inactive); in the assay on OVCAR-3, > 100 µM (inactive); with T47D, > 100 µM (inactive); in the assay on TK-10, > 100 µM (inactive). The GI50 is 43.7 µM (inactive) in the assay on NCI-H226; 85.3 µM (inactive) in the assay on SF-268; > 100 µM (inactive) in the assay on HCC 2998; > 100 µM (inactive) in the assay with A549; > 10 µM (inactive) in the assay with SR; > 100 µM (inactive) in the assay with DU-145. In addition, the GI50 in the assay with SK-OV-3 was 85.7 µM (inactive); in the assay with NCI-H460 it was 36.6 µM (inactive); in the assay on HT-29 it was > 100 µM (inactive); in the assay on KM12 it was 60.4 µM (inactive); in the assay with SW-620, > 100 µM (inactive); with NCI-H522, > 100 µM (inactive).

In the case of `CC(=O)OC(C)(C)/N=N/c1ccc(Br)cc1`, the GI50 in the assay with ACHN is 1.33 µM (inactive); in the assay on BT-549 it was 97.7 µM (inactive); in the assay with CCRF-CEM, 10.2 µM (inactive); with SF-295, 0.153 µM (active); in the assay on OVCAR-3 it was 13.6 µM (inactive); in the assay with T47D it was 1.09 µM (active). The GI50 in the assay on TK-10 was 23.7 µM (inactive); with NCI-H226, 2.96 µM (inactive); in the assay with SF-268, 17.4 µM (inactive); in the assay on HCC 2998, 16.6 µM (inactive); in the assay with A549, 6.04 µM (inactive); with SR, 0.475 µM (active). Moreover, the GI50 with NCI-H23 was 25.8 µM (inactive); in the assay on DU-145 it was 54.2 µM (inactive); in the assay with SK-OV-3 it was > 33.9 µM (inactive); in the assay on NCI-H460, 0.946 µM (active); in the assay with HT-29 it was 0.975 µM (active); in the assay on KM12, 5.79 µM (inactive). In addition, the GI50 in the assay with SW-620 is 48.2 µM (inactive); with NCI-H522 it was 9.4 µM (inactive).

`C[C@]12CC[C@H](O)CC1=CC[C@@H]1C2CC[C@]2(C)Nc3c(cnn3-c3ccc(F)cc3)CC12` (stereo partly specified): the GI50 in the assay on ACHN was 16 µM (inactive); with BT-549 it was 14.4 µM (inactive); in the assay on CCRF-CEM it was 2.94 µM (inactive); with SF-295 it was 2.43 µM (inactive); in the assay on OVCAR-3, 48.5 µM (inactive); in the assay with T47D it was > 42.7 µM (inactive). Besides, the GI50 is 78.2 µM (inactive) in the assay on TK-10; 40.9 µM (inactive) with NCI-H226; 26.1 µM (inactive) in the assay on SF-268; > 68.2 µM (inactive) in the assay with HCC 2998; 52.1 µM (inactive) with A549; > 100 µM (inactive) in the assay with SR. The GI50 in the assay with NCI-H23 was 26.5 µM (inactive); in the assay on DU-145, 32 µM (inactive); with SK-OV-3 it was 15.7 µM (inactive); with NCI-H460 it was 3.51 µM (inactive); in the assay with HT-29 it was 5.94 µM (inactive); in the assay on KM12 it was 29.4 µM (inactive). The GI50 in the assay with NCI-H522 is 48.1 µM (inactive).

For `Nc1cccc(C2CCCc3c2[nH]c2ccccc32)c1` (stereo unspecified), the GI50 in the assay on ACHN was 25 µM (inactive); in the assay with BT-549 it was 18.4 µM (inactive); in the assay on CCRF-CEM, 15.3 µM (inactive); in the assay on SF-295, 20.8 µM (inactive); in the assay on OVCAR-3 it was 26.7 µM (inactive); with T47D, 12.1 µM (inactive). For the same compound, the GI50 was 32.4 µM (inactive) in the assay on TK-10; 25.7 µM (inactive) with NCI-H226; 17.2 µM (inactive) in the assay on SF-268; 22.6 µM (inactive) in the assay with HCC 2998; 17.5 µM (inactive) with A549; 9.08 µM (inactive) with SR. The GI50 with NCI-H23 is 19.1 µM (inactive); with DU-145, 27 µM (inactive); in the assay with SK-OV-3, 23.9 µM (inactive); with NCI-H460, 19.5 µM (inactive); in the assay with HT-29, 14.6 µM (inactive); in the assay on KM12, 17.5 µM (inactive). For the same compound, the GI50 in the assay with SW-620 is 17.4 µM (inactive); with NCI-H522, 15.8 µM (inactive).

`COC(=O)C1CN=CN1CCc1ccccc1` (stereo unspecified): the GI50 with ACHN, with BT-549, in the assay on CCRF-CEM, in the assay with SF-295, in the assay with OVCAR-3 and with T47D was > 100 µM (inactive) each time. Besides, the GI50 in the assay on TK-10, in the assay on NCI-H226, with HCC 2998, with A549, in the assay with SR and in the assay with NCI-H23 was > 100 µM (inactive) in each case. The GI50 in the assay on DU-145, in the assay on SK-OV-3, in the assay on NCI-H460, in the assay on HT-29, in the assay on KM12 and in the assay on SW-620 was > 100 µM (inactive) each time. For the same compound, in the assay with NCI-H522, the GI50 is > 100 µM (inactive).

Consider `[N-]=[N+]=Nc1ccc2c(c1)Sc1ccccc1N2CCCCN1CCN(C(=O)CCNC(=O)Cc2ccc(C(=O)c3ccccc3)cc2)CC1`, for which the GI50 with ACHN is 3.61 µM (inactive); in the assay with BT-549, 5.06 µM (inactive); in the assay on CCRF-CEM it was 1.79 µM (inactive); in the assay on SF-295, 3.78 µM (inactive); in the assay with OVCAR-3, 4.5 µM (inactive); with T47D, 5.36 µM (inactive). Also, the GI50 in the assay on TK-10 was 13.2 µM (inactive); in the assay with NCI-H226, 13.6 µM (inactive); in the assay on SF-268 it was 3.84 µM (inactive); with HCC 2998, 2.53 µM (inactive); with A549, 4.52 µM (inactive); with SR, 2.08 µM (inactive). Further, the GI50 is 4.78 µM (inactive) in the assay with NCI-H23; 4.93 µM (inactive) in the assay on DU-145; 27.9 µM (inactive) with SK-OV-3; 3.72 µM (inactive) with NCI-H460; 1.98 µM (inactive) in the assay on HT-29; 3.31 µM (inactive) with KM12. The results for the GI50 in the assay with SW-620 and in the assay on NCI-H522 were 9.66 µM (inactive) and 2.45 µM (inactive), respectively.

`Nc1nc(O)nc2snnc12`: the GI50 in the assay with ACHN is > 100 µM (inactive); in the assay on BT-549, 3.54 µM (inactive); in the assay with CCRF-CEM, 14.9 µM (inactive); in the assay on SF-295 it was 33.2 µM (inactive); in the assay with OVCAR-3 it was > 100 µM (inactive); in the assay on T47D it was 4.57 µM (inactive). For the same compound, the GI50 with TK-10 is > 22.4 µM (inactive); in the assay with NCI-H226, > 36.1 µM (inactive); in the assay with SF-268 it was 5.04 µM (inactive); with HCC 2998, > 65.6 µM (inactive); in the assay on A549, > 100 µM (inactive); with SR, 9.46 µM (inactive). Moreover, the GI50 in the assay with NCI-H23 is > 100 µM (inactive); in the assay with DU-145, 16.9 µM (inactive); with SK-OV-3 it was 50.2 µM (inactive); in the assay on NCI-H460, > 100 µM (inactive); in the assay on HT-29 it was > 100 µM (inactive); in the assay with KM12, > 100 µM (inactive). In addition, the results for the GI50 with SW-620 and in the assay with NCI-H522 were 5.4 µM (inactive) and > 100 µM (inactive), respectively.

On to `CN1CCCOC(c2ccc(Cl)cc2)O1` (stereo unspecified), for which the GI50 with ACHN, with BT-549, in the assay with CCRF-CEM, in the assay with SF-295, in the assay on OVCAR-3 and with T47D was > 100 µM (inactive) throughout. The GI50 in the assay on TK-10, in the assay with NCI-H226, with SF-268, in the assay with HCC 2998, in the assay with A549 and in the assay on SR was > 100 µM (inactive) in each case. For the same compound, the GI50 in the assay on NCI-H23, in the assay on DU-145, in the assay on SK-OV-3, with NCI-H460, with HT-29 and in the assay with KM12 was > 100 µM (inactive) throughout. In addition, the GI50 with SW-620 and with NCI-H522 was > 100 µM (inactive) each time.

For `CCN1/C(=C/c2ccc3ccccc3[n+]2CC)C=Cc2ccccc21`, the GI50 in the assay with ACHN is 2.33 µM (inactive); in the assay with BT-549 it was 1.69 µM (inactive); with CCRF-CEM, 0.26 µM (active); with SF-295, 0.479 µM (active); with OVCAR-3, 0.269 µM (active); in the assay on T47D, 0.22 µM (active). Moreover, the GI50 in the assay with TK-10 is 2.81 µM (inactive); with NCI-H226, 1.66 µM (inactive); in the assay with SF-268 it was 1.27 µM (inactive); in the assay on HCC 2998 it was 0.482 µM (active); in the assay with A549 it was 0.764 µM (active); with SR it was 0.164 µM (active). Further, the GI50 is 0.551 µM (active) in the assay with NCI-H23; 0.867 µM (active) in the assay with DU-145; 2.18 µM (inactive) with SK-OV-3; 0.333 µM (active) in the assay on NCI-H460; 1.14 µM (inactive) in the assay with HT-29; 0.149 µM (active) in the assay on KM12. For the same compound, the GI50 in the assay with SW-620 is 0.762 µM (active); in the assay with NCI-H522, 0.266 µM (active).
